Laboratory results reported in PubChem BioAssay (NCI).
Where “and” joins values, the source holds several entries; their conditions need not be identical. Equal entries are not always repeated.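 Protocol summary: plate cells (96-well), add compound at 5 concentrations, incubate 48 h, interpolate endpoints linearly. Here, GI50 denotes the concentration required for 50% inhibition of growth. TGI: total growth inhibition.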

How the values were obtained:
Experiment in all cases: growth of human tumour cells (NCI), 48 h
CAKI-1 renal = test system: CAKI-1 renal
M14 melanoma = test system: M14 melanoma
NCI-H23 lung = test system: NCI-H23 lung
RPMI-8226 leukemia = test system: RPMI-8226 leukemia
SF-268 CNS = test system: SF-268 CNS
SK-MEL-28 melanoma = test system: SK-MEL-28 melanoma
SN12C renal = test system: SN12C renal
SNB-19 CNS = test system: SNB-19 CNS
SW-620 colon = test system: SW-620 colon
U251 CNS = test system: U251 CNS

Compound: CCCCN(Cc1ccc(F)cc1)c1ccc(CO)c(Cl)c1
- GI50 (CAKI-1 renal): 11.7 µM
- TGI (CAKI-1 renal): 25.5 µM
- GI50 (M14 melanoma): 17.5 µM
- TGI (M14 melanoma): 34.6 µM
- GI50 (NCI-H23 lung): 11.8 µM
- TGI (NCI-H23 lung): 26.3 µM
- GI50 (RPMI-8226 leukemia): 10.1 µM
- TGI (RPMI-8226 leukemia): 36.3 µM
- GI50 (SF-268 CNS): 19.3 µM
- TGI (SF-268 CNS): 36 µM
- GI50 (SK-MEL-28 melanoma): 14.8 µM
- TGI (SK-MEL-28 melanoma): 28.4 µM
- GI50 (SN12C renal): 12.5 µM
- TGI (SN12C renal): 25.3 µM
- GI50 (SNB-19 CNS): 14.3 µM
- TGI (SNB-19 CNS): 27.7 µM
- GI50 (SW-620 colon): 6.11 µM
- TGI (SW-620 colon): 20.7 µM
- GI50 (U251 CNS): 4.57 µM
- TGI (U251 CNS): 18.9 µM

Compound: Cc1ccc(C(O)c2cnc(C)n2Cc2ccccc2)cc1 (stereo unspecified)
- TGI (CAKI-1 renal): > 100 µM
- TGI (M14 melanoma): > 100 µM
- TGI (NCI-H23 lung): > 100 µM
- TGI (RPMI-8226 leukemia): > 100 µM
- TGI (SF-268 CNS): > 100 µM
- TGI (SK-MEL-28 melanoma): > 100 µM
- TGI (SN12C renal): > 100 µM
- TGI (SNB-19 CNS): > 100 µM
- TGI (SW-620 colon): > 100 µM
- TGI (U251 CNS): > 100 µM

Compound: CC1C(=O)C(C)C(c2ccccc2)N(N=O)C1c1ccccc1 (stereo unspecified)
- TGI (CAKI-1 renal): > 700 µM
- TGI (M14 melanoma): > 581 µM
- GI50 (NCI-H23 lung): 332 µM
- TGI (NCI-H23 lung): > 779 µM
- TGI (RPMI-8226 leukemia): > 1000 µM
- GI50 (SF-268 CNS): 44 µM
- TGI (SF-268 CNS): 352 µM
- TGI (SK-MEL-28 melanoma): > 834 µM
- GI50 (SN12C renal): > 65.2 µM
- TGI (SN12C renal): 981 µM
- GI50 (SNB-19 CNS): 312 µM
- TGI (SNB-19 CNS): > 830 µM
- GI50 (SW-620 colon): > 1000 µM
- TGI (SW-620 colon): > 1000 µM
- GI50 (U251 CNS): 131 µM
- TGI (U251 CNS): > 92.4 µM and 397 µM

Compound: N#C/C(=C\c1cccc(O)c1)C(N)=O
- TGI (CAKI-1 renal): > 100 µM
- TGI (M14 melanoma): > 100 µM
- TGI (NCI-H23 lung): > 100 µM
- TGI (RPMI-8226 leukemia): > 100 µM
- TGI (SF-268 CNS): > 100 µM
- TGI (SK-MEL-28 melanoma): > 100 µM
- TGI (SN12C renal): > 100 µM
- TGI (SNB-19 CNS): > 100 µM
- TGI (SW-620 colon): > 100 µM
- TGI (U251 CNS): > 100 µM

Compound: O=C1C2=C(c3ccccc31)C(c1ccccc1)NC(=S)N2 (stereo unspecified)
- TGI (CAKI-1 renal): > 100 µM
- TGI (M14 melanoma): > 100 µM
- TGI (NCI-H23 lung): > 100 µM
- TGI (RPMI-8226 leukemia): > 100 µM
- TGI (SF-268 CNS): > 100 µM
- TGI (SK-MEL-28 melanoma): > 100 µM
- TGI (SN12C renal): > 100 µM
- TGI (SNB-19 CNS): > 100 µM
- TGI (SW-620 colon): > 100 µM
- TGI (U251 CNS): > 100 µM

Compound: OCCCCCCOc1ccc(-c2cc(-c3ccccn3)nc(-c3ccccn3)c2)cc1
- TGI (CAKI-1 renal): 1.66 µM
- TGI (M14 melanoma): 4.3 µM
- TGI (NCI-H23 lung): 9.05 µM
- TGI (RPMI-8226 leukemia): 1.88 µM
- TGI (SF-268 CNS): 1.32 µM
- TGI (SK-MEL-28 melanoma): 2.72 µM
- TGI (SN12C renal): 3.02 µM
- TGI (SNB-19 CNS): 37.8 µM
- TGI (SW-620 colon): 14.7 µM
- TGI (U251 CNS): 1.6 µM

Compound: C=C1CC[C@@H]2[C@](C)(COC(C)=O)[C@H](OC(C)=O)CC[C@@]2(C)[C@@H]1CC(Nc1ccc(S(=O)(=O)Nc2nccc(C)n2)cc1)C1=CCOC1=O (stereo partly specified)
- GI50 (CAKI-1 renal): 3.56 µM
- TGI (CAKI-1 renal): 12.5 µM
- GI50 (M14 melanoma): 2.81 µM
- TGI (M14 melanoma): 10.8 µM
- GI50 (NCI-H23 lung): 3.78 µM
- TGI (NCI-H23 lung): 16 µM
- GI50 (RPMI-8226 leukemia): 1.95 µM
- TGI (RPMI-8226 leukemia): 6.84 µM
- GI50 (SF-268 CNS): 6.19 µM
- TGI (SF-268 CNS): 20.9 µM
- GI50 (SK-MEL-28 melanoma): 2.83 µM
- TGI (SK-MEL-28 melanoma): 10.1 µM
- GI50 (SN12C renal): 2.64 µM
- TGI (SN12C renal): 6.17 µM
- GI50 (SNB-19 CNS): 6.3 µM
- TGI (SNB-19 CNS): 20.7 µM
- GI50 (SW-620 colon): 1.6 µM
- TGI (SW-620 colon): 3.68 µM
- GI50 (U251 CNS): 3.17 µM
- TGI (U251 CNS): 10.7 µM

Compound: NC(C(=O)[O-])C(=O)[O-].NC1CCCCC1N.[Pt+4]
- GI50 (CAKI-1 renal): 1.07 µM
- TGI (CAKI-1 renal): 3.99 µM
- GI50 (M14 melanoma): 20.2 µM
- TGI (M14 melanoma): > 100 µM
- GI50 (NCI-H23 lung): 13.9 µM
- TGI (NCI-H23 lung): > 100 µM
- GI50 (RPMI-8226 leukemia): 0.957 µM
- TGI (RPMI-8226 leukemia): 19.2 µM
- GI50 (SF-268 CNS): 0.188 µM
- TGI (SF-268 CNS): 6.71 µM
- GI50 (SK-MEL-28 melanoma): 12.7 µM
- TGI (SK-MEL-28 melanoma): > 100 µM
- GI50 (SN12C renal): 4.5 µM
- TGI (SN12C renal): > 100 µM
- GI50 (SNB-19 CNS): 6.54 µM
- TGI (SNB-19 CNS): > 100 µM
- GI50 (SW-620 colon): 1.75 µM
- TGI (SW-620 colon): > 100 µM
- GI50 (U251 CNS): 4.63 µM
- TGI (U251 CNS): > 100 µM

Compound: CN(CCOc1ccc(C#N)cc1)CCOc1ccc(C#N)cc1
- GI50 (CAKI-1 renal): 74.6 µM
- TGI (CAKI-1 renal): > 100 µM
- GI50 (M14 melanoma): 78.9 µM
- TGI (M14 melanoma): > 100 µM
- GI50 (NCI-H23 lung): 22.6 µM
- TGI (NCI-H23 lung): > 100 µM
- GI50 (RPMI-8226 leukemia): 7.39 µM
- TGI (RPMI-8226 leukemia): > 100 µM
- GI50 (SF-268 CNS): > 100 µM
- TGI (SF-268 CNS): > 100 µM
- GI50 (SK-MEL-28 melanoma): > 100 µM
- TGI (SK-MEL-28 melanoma): > 100 µM
- GI50 (SN12C renal): > 100 µM
- TGI (SN12C renal): > 100 µM
- GI50 (SNB-19 CNS): > 100 µM
- TGI (SNB-19 CNS): > 100 µM
- GI50 (SW-620 colon): 57.5 µM
- TGI (SW-620 colon): > 100 µM
- GI50 (U251 CNS): 81.4 µM
- TGI (U251 CNS): > 100 µM

Compound: CC(=O)n1c2ccccc2c2nc3nc(Oc4ccc(C)cc4)c4ccccc4c3cc21
- TGI (CAKI-1 renal): > 100 µM
- TGI (M14 melanoma): > 100 µM
- TGI (NCI-H23 lung): 78.7 µM
- TGI (RPMI-8226 leukemia): > 100 µM
- TGI (SF-268 CNS): > 100 µM
- TGI (SK-MEL-28 melanoma): > 100 µM
- TGI (SN12C renal): > 100 µM
- TGI (SNB-19 CNS): > 100 µM
- TGI (SW-620 colon): > 100 µM
- TGI (U251 CNS): > 100 µM

Compound: COc1cc([C@@H]2c3cc4c(cc3[C@@H](NC(=O)c3ccccc3)C3COC(=O)[C@@H]32)OCO4)cc(OC)c1O (stereo partly specified)
- TGI (CAKI-1 renal): > 100 µM
- TGI (M14 melanoma): 24.8 µM
- TGI (NCI-H23 lung): 10.7 µM
- TGI (RPMI-8226 leukemia): 21.8 µM
- TGI (SF-268 CNS): > 100 µM
- TGI (SK-MEL-28 melanoma): 87.7 µM
- TGI (SN12C renal): 9.81 µM
- TGI (SNB-19 CNS): > 100 µM
- TGI (SW-620 colon): > 100 µM
- TGI (U251 CNS): 13.5 µM

Compound: C[C@@H]1CN(CC(=O)N2CC(C)(C)c3nc(CO)c(Cc4ccc(F)cc4)cc32)[C@@H](CN2CCOC[C@H]2C)CN1
- GI50 (CAKI-1 renal): > 100 µM
- TGI (CAKI-1 renal): > 100 µM
- GI50 (M14 melanoma): 18.6 µM
- TGI (M14 melanoma): 37.9 µM
- GI50 (NCI-H23 lung): 51.8 µM
- TGI (NCI-H23 lung): > 100 µM
- GI50 (RPMI-8226 leukemia): 21.9 µM
- TGI (RPMI-8226 leukemia): 48 µM
- GI50 (SF-268 CNS): 64.1 µM
- TGI (SF-268 CNS): > 100 µM
- GI50 (SK-MEL-28 melanoma): 18.6 µM
- TGI (SK-MEL-28 melanoma): 37.5 µM
- GI50 (SN12C renal): 78.2 µM
- TGI (SN12C renal): > 100 µM
- GI50 (SNB-19 CNS): > 100 µM
- TGI (SNB-19 CNS): > 100 µM
- GI50 (SW-620 colon): > 100 µM
- TGI (SW-620 colon): > 100 µM
- GI50 (U251 CNS): 68.5 µM
- TGI (U251 CNS): > 100 µM
